Results on 80 compounds are retold here after article PMC12040169 (PLOS Biology, 2025).

Molecules are shown by their SMILES.

One data set in a line: in vitro. The note with it: human, hela cells, % viability.
Regarding `CCC(CC)(CC(=O)Nc1ccc2nc(C)sc2c1)C(=O)O` [CBK297882], the viability (commonly a read-out of living cells in per cent, often relative to untreated cells) at 28.5 h, 10 µM was determined as 112%.
Still for that read-out and setting: next, `COc1cccc(CN2CCCC(NC(=O)c3ccccc3Cl)C2)c1` (centres unmarked) [CBK306774]: 117%.
Take `CCC(CC)NS(=O)(=O)c1cccc(C(=O)O)c1` [CBK287225]: the viability at 28.5 h, 10 µM was found to be 88.3%.
The same measure, in the same setting: next, `CC(=O)Nc1ccc(S(=O)(=O)Nc2ccc(CC#N)cc2)cc1Cl` [CBK044058]: 87.8%; `O=C(NCc1cccnc1)c1cc(S(=O)(=O)N2CCCC2)c(Cl)cc1Cl` [CBK264455]: 108%.
Turning to `Clc1ccc(CN2CCN(Cc3ccc(Cl)cc3)C2c2ccncc2)cc1` [CBK265207], the viability at 28.5 h, 10 µM came out at 104%.
Take `CCOc1cc(OCC)nc(Oc2ccc(C(=O)OC)cc2)n1` [CBK107733]: the viability at 28.5 h, 10 µM is 87.2%.
On the same count and under the same terms, next, `COC(=O)[C@@H](C)NC(=O)[C@H]1CN(C(=O)Nc2ccccc2)CCN1C(=O)c1cccs1` [CBK289629]: 97.2%.
Still for that read-out and setting: next, `Fc1cccc(Sc2nnnn2-c2ccccc2)c1` [CBK002906]: 108%; `Cc1cc(Br)ccc1C(=O)Nc1ccc2ncccc2c1` [CBK159814]: 92.1%.
Same read-out and setting: next, `O=C1N=C(NCC2CCCCC2)SC1CC(=O)N1CCCC(O)C1` (centres unmarked) [CBK067919]: 109%; `O=C(c1ccc(-c2nccnc2NCC2CC2)cc1)N1CCOCC1` [CBK036814]: 88.8%; `O=C1CCN(Cc2ccccc2)CCN1C(=O)C1CCCC1` [CBK284829]: 85.7%.
With `O=C1CC2(CCN(C(=O)c3ccc4cc[nH]c4c3)CC2)Oc2ccc(CN3CCOCC3)cc21` [CBK169469], the viability at 28.5 h, 10 µM turned out to be 121%.
Still for that read-out and setting: next, `Cc1cc(C)n(C(C(=O)NCCOc2ccc(F)cc2)C(C)C)n1` (centres unmarked) [CBK281595]: 81.4%; `Cc1sc2c(C3CCN(C(=O)C4CC4)CC3)nc(C)n2c1C` [CBK285298]: 101%; `N#Cc1c(NC(=O)c2cccnc2)sc2c1CCCCC2` [CBK287584]: 98.6%.
On the same count and under the same terms, next, `O=S(=O)([O-])c1cc(S(=O)(=O)O)ccc1Nc1cc2c(nc3ccccc3[n+]2-c2ccccc2)c2ccccc12` [CBK260997N]: 102%; `Cc1cc(C(=O)Nc2nc(Cc3n[nH]c(=S)n3C)cs2)sc1C` [CBK296687]: 68.5%.
For the compound `Fc1cccc2sc(Nc3nc(-c4ccccn4)cs3)nc12` [CBK287479], the viability at 28.5 h, 10 µM is 108%.
As for `CCN(CC(C)C#N)C(=O)c1nn(-c2ccccc2)c(C)cc1=O` (centres unmarked) [CBK304925], the viability at 28.5 h, 10 µM is 109%.
Consider `CCCOc1ccc(Cc2nnn[nH]2)cc1` [CBK262590], for which the viability at 28.5 h, 10 µM amounted to 83.9%.
With `CCOC(=O)c1c(NC(=O)c2cccnc2)sc2c1CCCC2` [CBK304574], the viability at 28.5 h, 10 µM was found to be 101%.
On the same count and under the same terms, next, `COc1ccc(S(=O)(=O)N2CCC(C(=O)NC3(C(=O)O)CCCCC3)CC2)cc1OC` [CBK295646]: 95.5%; `Nc1ncc(-c2ccsc2)nc1-c1ccc(O)cc1` [CBK115631]: 100%.
As to `COCCNC(=O)CN(C)c1nc2ccccc2[nH]1` [CBK306378], the viability at 28.5 h, 10 µM came out at 84.6%.
Same read-out and setting: next, `Cc1ccc(-c2n[nH]c(=O)o2)cc1Br` [CBK288443]: 85.9%; `CCC(NC(=O)Cc1c(C)nc(SC)[nH]c1=O)c1ccc(F)cc1` (centres unmarked) [CBK282653]: 81.7%.
The same measure, in the same setting: next, `COc1ccc(S(=O)(=O)N2CCN(Cc3ccc4c(c3)OCO4)CC2)c2ccccc12` [CBK074521]: 96.4%; `COc1cc(Cl)c(C)cc1NC(=O)C1CC=CCC1C(=O)O` (centres unmarked) [CBK296667]: 94.1%; `CC(NC(=O)CCCC(=O)c1cccs1)c1cccc2ccccc12` (centres unmarked) [CBK297748]: 105%.
Still for that read-out and setting: next, `COc1cc(/C=C2\SC(=N)NC2=O)cc(Cl)c1OS(=O)(=O)c1ccc(NC(C)=O)cc1` [CBK264502]: 107%.
As for `O=C(Nc1nc2ccccc2s1)NC1CC1` [CBK007542], the viability at 28.5 h, 10 µM worked out at 102%.
For `O=C(O)c1ccccc1NS(=O)(=O)c1cccc(-n2sc3ccccc3c2=O)c1` [CBK116503], the viability at 28.5 h, 10 µM turned out to be 94.7%.
With `C=CCOCc1cc(O)n2nc(SC)c(C(N)=O)c2n1` [CBK008592], the viability at 28.5 h, 10 µM came out at 94.6%.
The same measure, in the same setting: next, `Cc1nnc(S)n1CC(=O)n1c2c(c3ccccc31)CCCC2` [CBK266244]: 106%.
As to `O=C(O)C[C@@H]1CCN(C(=O)c2ccco2)C[C@@H]1CC1=NCCc2cc(F)ccc21` [CBK289166], the viability at 28.5 h, 10 µM is 91.1%.
Regarding `CCN(CC)C(=O)C1CCCN(C(=O)NCCN2CCOCC2)C1` (centres unmarked) [CBK156128], the viability at 28.5 h, 10 µM came to 96.1%.
For `Cc1cc(NC(=O)C2COc3ccccc3O2)c2ccccc2n1` (centres unmarked) [CBK115871], the viability at 28.5 h, 10 µM is 91.6%.
On to `CCCc1ccc(S(=O)(=O)N2CCN(CC(=O)Nc3cc(C(C)C)no3)CC2)cc1` [CBK295629], for which the viability at 28.5 h, 10 µM is 114%.
On to `Fc1ccc2[nH]c3c(c2c1)CCN1C(c2cccnc2)N2CCC31CC2` (centres unmarked) [CBK284436], for which the viability at 28.5 h, 10 µM amounted to 87.6%.
On the same count and under the same terms, next, `O=C(Cc1ccc2c(c1)OCO2)Nc1nn(Cc2ccc(C(F)(F)F)cc2)c2ccccc12` [CBK048401]: 115%.
Consider `O=C(O)c1cccc(NS(=O)(=O)Cc2ccccc2)c1` [CBK038894], for which the viability at 28.5 h, 10 µM turned out to be 96.4%.
As for `C=C(C)CN1CCN(C(=O)CSc2nccc3ccccc23)CC1` [CBK282712], the viability at 28.5 h, 10 µM was found to be 88.4%.
On to `O=C(NC1CCN(CC(F)(F)F)C1=O)c1cc(Cl)ccn1` (centres unmarked) [CBK305223], for which the viability at 28.5 h, 10 µM was determined as 98.6%.
On to `COc1ccc(C(NC(=O)C2CCC(N)CC2)c2ccccc2C)cn1` (centres unmarked) [CBK078551], for which the viability at 28.5 h, 10 µM turned out to be 92%.
The same measure, in the same setting: next, `COc1c(I)cc(Br)cc1/C=N/NC(=O)CC#N` [CBK025764]: 91.8%; `NC(=O)C1(Cc2ccccc2-c2cccc(F)c2)CCN(C(=O)c2cccc(F)c2)CC1` [CBK285693]: 96.8%; `CC(=O)C(C)Oc1ccccc1-n1cccc1` (centres unmarked) [CBK020334]: 95.9%.
In the case of `O=C(O)CCc1ccc(-c2ccc(F)cc2)n1-c1cc(Cl)ccc1Cl` [CBK264754], the viability at 28.5 h, 10 µM came to 111%.
Regarding `COCCCNC(=O)Cn1c(-c2ccc(F)cc2)cc2cccnc21` [CBK285385], the viability at 28.5 h, 10 µM is 88.5%.
On the same count and under the same terms, next, `O=C(O)c1cccc(-c2cccc(N3CCN(c4ccccn4)CC3)n2)c1` [CBK036888]: 92.7%.
As for `Cc1cc2occ(CC(=O)NC3CCCN(C)C3)c2cc1C` (centres unmarked) [CBK282611], the viability at 28.5 h, 10 µM amounted to 93.1%.
Still for that read-out and setting: next, `COc1cccc2sc(Nc3nc(-c4cccs4)cs3)nc12` [CBK287469]: 82.8%.
On the same count and under the same terms, next, `Cc1cnc(NCC2(CO)CCOCC2)nc1N(C)C` [CBK307026]: 104%.
For the compound `O=S(=O)(/N=C(/c1ccc(Cl)cc1)N1CCOCC1)c1ccccc1` [CBK293950], the viability at 28.5 h, 10 µM was determined as 93.5%.
Same read-out and setting: next, `COc1ccc(-c2cc(=O)n3cc[nH]c3n2)cc1` [CBK006659]: 87.6%; `COc1ccc(C(=O)NCCc2ccc(S(N)(=O)=O)cc2)cc1[N+](=O)[O-]` [CBK264335]: 99.8%.
For the compound `CCc1[nH]nc(C)c1Cc1c(Cl)cccc1Cl` [CBK093598], the viability at 28.5 h, 10 µM was 106%.
Turning to `COc1cc(CNC(=O)NC(=O)C2CCN(CCCc3ccc(Cl)c(Cl)c3)CC2)cc(OC)c1OC` [CBK034858], the viability at 28.5 h, 10 µM was 107%.
Same read-out and setting: next, `O=[N+]([O-])c1ccccc1S(=O)(=O)NCCSCc1c(F)cccc1Cl` [CBK265259]: 102%.
Consider `O=C(C1CCCC1)N1CCc2nc(-c3ccccc3)[nH]c(=O)c2C1` [CBK282331], for which the viability at 28.5 h, 10 µM was determined as 99%.
With `COc1cccc(C(=O)N2CCN(C(=O)Nc3ccsc3)CC2)c1` [CBK154782], the viability at 28.5 h, 10 µM came to 91.5%.
Same read-out and setting: next, `O=C(Cc1csc(NS(=O)(=O)c2ccc(-c3cccc([N+](=O)[O-])c3)cc2)n1)N1CCOCC1` [CBK200032]: 110%.
On to `COC(=O)CCc1ccc(S(=O)(=O)N2CCCN(Cc3c[nH]c4ccc(Cl)cc34)CC2)cc1` [CBK063000], for which the viability at 28.5 h, 10 µM was 99.2%.
On to `Cn1cc2c(n1)[C@H]1CN(C(=O)c3cc(C(F)(F)F)n(C)n3)C[C@H]1C2` [CBK283399], for which the viability at 28.5 h, 10 µM was found to be 88.5%.
Take `Cc1cc(Br)ccc1S(=O)(=O)Nc1nc(-c2c(F)cccc2Cl)cs1` [CBK200026]: the viability at 28.5 h, 10 µM worked out at 95.6%.
On the same count and under the same terms, next, `O=C(NCCN1CCOCC1)c1nnc(C(=O)Nc2cccc(Cl)c2)s1` [CBK294405]: 93.9%.
Turning to `O=S(=O)(NCCN1CCCC1)c1cccc2nsnc12` [CBK261132], the viability at 28.5 h, 10 µM stood at 97.3%.
As to `Cc1noc(C)c1CN1CCC(c2ccccc2)C1` (centres unmarked) [CBK304451], the viability at 28.5 h, 10 µM turned out to be 109%.
For the compound `FC(F)C(F)(F)Oc1cccc(Nc2nccn3ccnc23)c1` [CBK066284], the viability at 28.5 h, 10 µM turned out to be 91.6%.
Regarding `CCN1CCC[C@@H]1CNC(=O)c1n[nH]c2c1CCC2` [CBK174628], the viability at 28.5 h, 10 µM was found to be 106%.
For `O=C(Cc1cccc(F)c1)N1CCC(O)(c2ccccn2)CC1` [CBK283586], the viability at 28.5 h, 10 µM was 100%.
Regarding `Cc1ccc(S(=O)(=O)N(CC(=O)NC2CC3CCC2C3)c2cc(Cl)cc(Cl)c2)cc1` (centres unmarked) [CBK263995], the viability at 28.5 h, 10 µM was found to be 85.3%.
Same read-out and setting: next, `CS(=O)(=O)N(CC(=O)Nc1ccccc1-c1ccccc1)c1ccc(F)c(Cl)c1` [CBK268539]: 91.2%.
Still for that read-out and setting: next, `COc1ccc(C(=O)C2=C(O)C(=O)N(Cc3cccnc3)C2c2ccc(N(C)C)cc2)cc1` (centres unmarked) [CBK264635]: 85.9%; `Cc1ccn2cc(-c3ccc4c(c3)CC(C)N4S(C)(=O)=O)nc2c1` (centres unmarked) [CBK285183]: 84.6%.
Still for that read-out and setting: next, `COc1cccc(-n2cnc3cccc(N)c32)c1` [CBK022114]: 94.9%.

Still in this data set, the particulars now being: human, hela cells, % viability, bulk resorufin, single well.
For the compound `FC(F)(F)c1ccc(COc2cccc(-c3ccc4c(c3)COC3(CCNCC3)O4)c2)cc1` [CBK105868], the viability at 28.5 h, 10 µM is 83.7%.
In the case of `CN(C)CCCN/C=C1/C(=O)NC(=S)N(c2ccc(Cl)cc2)C1=O` [CBK261828], the viability at 28.5 h, 10 µM came to 91.6%.
